Experimental data reported in article PMC2833169, “Anti-malarial activity of a non-piperidine library of next-generation quinoline methanols” (Malaria Journal, 2010).
Values after ≈ are worked out from the molar mass of the structure shown. Like-named read-outs stand apart in the source and are kept apart here.

Columns and labels:
CYP450 1A2 = molecular target: T1, CYP450 1A2 (Homo sapiens, UniProt P05177); assay: CYP450 inhibition kit (drug-drug interaction), 1A2; type: biochemical
T1 construct: purchased BD Gentest (Franklin Lakes, NJ)
T1 sequence (P05177 1-516): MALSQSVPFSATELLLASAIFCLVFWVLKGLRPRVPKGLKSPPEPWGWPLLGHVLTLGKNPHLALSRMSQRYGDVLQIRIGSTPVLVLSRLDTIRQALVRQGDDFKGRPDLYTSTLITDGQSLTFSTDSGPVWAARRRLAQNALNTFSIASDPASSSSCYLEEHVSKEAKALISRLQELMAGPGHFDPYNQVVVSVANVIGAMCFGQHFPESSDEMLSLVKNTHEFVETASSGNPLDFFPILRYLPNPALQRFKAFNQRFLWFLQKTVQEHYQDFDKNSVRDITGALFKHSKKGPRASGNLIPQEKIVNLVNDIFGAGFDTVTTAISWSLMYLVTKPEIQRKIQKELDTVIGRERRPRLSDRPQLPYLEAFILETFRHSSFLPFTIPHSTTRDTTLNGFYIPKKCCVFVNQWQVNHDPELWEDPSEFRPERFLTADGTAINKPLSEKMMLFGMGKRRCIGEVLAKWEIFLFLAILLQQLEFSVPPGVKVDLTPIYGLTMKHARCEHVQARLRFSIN
Experimental: (§1) Low IC50s against specific cytochrome P450 isoforms may indicate the potential for a harmful drug interaction to occur in vivo with substrates of that isoform. A lack of metabolic stability in vitro may indicate potential metabolic instability in vivo, and, therefore, a shorter half-life. Drug interaction potential was evaluated in vitro using BD Gentest (Franklin Lakes, NJ) CYP450 inhibition kits as recommended by the manufacturer. Metabolic stability assessments were conducted using in vitro liver microsomes. […] The reaction is started with the addition of 1 U/mL glucose-6-phosphate dehydrogenase G6PD. The mixture is incubated on a shaking platform at 37°C, and aliquots are taken and quenched with the addition of an equal volume of cold acetonitrile at 0, 10, 20, 30, and 60 min. Samples are centrifuged at 3700 rpm for […] at 20°C to remove debris. Sample quantification is carried out by LC/MS, and metabolic half-life is calculated by log plots of the total ion chromatograph area remaining.

in vitro = details: mouse
Experimental: (§2) General cytotoxicity was assessed by first determining LC50 's against a rodent macrophage (RAW) cell line using the 3-(4,5-dimethylthiazole-2-yl)-2,5-diphenyltetrazolium bromide (MTT) assay as described in one of our earlier studies. This screen was conducted to identify compounds that may require de-selection due to generalized toxicity. […] In vitro neurocytotoxicity was assessed by determining LC50s against primary mouse neurons using the MTT assay as described previously. Inhibition of the A2A and A1 receptors was determined at 200 nM in duplicate by Caliper Biosciences (Hanover, Maryland).

[1] = metabolic stability in mouse liver microsomes; type: in vitro ADME; details: for half-life at 1 μM: pH 7.4, mouse liver microsomes, read-out: Half-life in mouse micro
Experimental: as §1, with “Interesting compounds were also submitted for drug-drug interaction and metabolic stability assays. Low” for “Low”

A2A receptor = molecular target: T2, A2A receptor (Homo sapiens, UniProt P29274); assay: inhibition of the A2A receptor at 200 nM; type: binding; details: 200 nM, duplicate; read-out: % A2A inhibition at 200 nM
T2 construct: Caliper Biosciences (contract screen)
T2 sequence (P29274 whole entry): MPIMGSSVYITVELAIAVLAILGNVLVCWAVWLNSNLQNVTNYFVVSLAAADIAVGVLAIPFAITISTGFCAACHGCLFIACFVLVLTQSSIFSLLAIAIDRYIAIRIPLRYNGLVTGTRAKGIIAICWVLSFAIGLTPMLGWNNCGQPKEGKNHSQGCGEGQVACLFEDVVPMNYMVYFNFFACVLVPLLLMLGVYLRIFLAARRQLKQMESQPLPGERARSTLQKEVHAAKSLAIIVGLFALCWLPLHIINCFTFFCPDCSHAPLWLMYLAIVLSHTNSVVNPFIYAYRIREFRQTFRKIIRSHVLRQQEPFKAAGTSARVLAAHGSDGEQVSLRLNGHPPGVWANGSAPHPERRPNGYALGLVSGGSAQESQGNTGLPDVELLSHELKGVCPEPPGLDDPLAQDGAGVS
Experimental: as §2

P. falciparum strain W2 = assay: labeled hypoxanthine susceptibility assay, P. falciparum W2; type: cell-based, Plasmodium falciparum; details: Plasmodium falciparum
Experimental: The in vitro activities of quinoline methanols against P. falciparum strains W2, D6, TM91C235, and TM90C2A were evaluated using the traditional labeled hypoxanthine assay of Desjardins et al as modified by Milhous et al. These four P. falciparum strains were selected since they have various levels of resistance to conventional anti-malarials.

[2] = system: rodent macrophage (RAW) cell line; assay: cells; details: Mus musculus, Macrophage, read-out: Macrophage IC50
[3] = system: MDR1-transfected MDCK cell monolayers; assay: in vitro; details: dog, MDCK-MDR1, 2 h, 5 μM, pH 7.4
Experimental: For this reason, the apparent permeability of selected compounds across MDR1-transfected MDCK cell monolayers was determined. This assay is an in vitro surrogate of the blood-brain barrier.
Permeability was determined by Absorption Systems (Exton, PA). MDR1-MDCK cell monolayers were grown to confluence on collagen-coated, microporous, polycarbonate membranes in 12-well Costar Transwell plates. […] The permeability assay buffer was Hanks Balanced Salt Solution containing 10 mM HEPES and 15 mM glucose at a pH of 7.4. A known p-glycoprotein inhibitor cyclosporin A (CSA) was also added to the assay buffer at 10 μM. Bovine serum albumin (1%) was added to the receiver well. The dosing solution concentrations of the test compounds were 5.0 μM in the assay buffer. All cell monolayers were first pre-incubated for 30 minutes with assay buffer. After 30 minutes, the buffer was removed, replaced with fresh buffer, and time was recorded as 0. […] Cell monolayers were dosed on the apical side (A-to-B) or basolateral side (B-to-A) and incubated at 37°C with 5% CO2 in a humidified incubator. After 2 hours, aliquots were taken from the receiver chambers. Samples were taken from the donor chamber at 0 and 2 hours. Each determination was performed in duplicate. The lucifer yellow flux was also measured for each monolayer to ensure no damage was inflicted to the cell monolayers during the flux period. All samples were assayed by LC/MS/MS using electrospray ionization.
Apparent permeability in the apical (A-B direction), PappA-B, and percent recovery are reported. Apparent permeability is a measure of the rate of transport across the cell monolayer. Percent recovery refers to the amount of compound recoverable at the end of the assay. Low recovery may indicate non-specific binding to assay plates, instability or accumulation in the cell pellet.
The apparent permeability, Papp, and percent recovery were calculated as follows:
Papp = (dCr/dt) × Vr/(A × C0) (1)
Percent Recovery = 100 × ((Vr × Cr^final) + (Vd × Cd^final))/(Vd × […]) (2)

| SMILES | IC50 (CYP450 1A2) [µM] | CC50 (in vitro) [µM] | half-life at 1 μM [1] [h] | inhibition at 0.2 µM (A2A receptor) [%] | IC90 (P. falciparum strain W2; W2, read-out: IC90 Pf W2) [ng/mL] | IC90 (P. falciparum strain W2; W2, read-out: PF W2 IC90) [ng/mL] | IC50 [2] [µM] | % recovery (MDCK-MDR1 permeability assay) [3] [%] | PappA-B MDCK-MDR1 [3] | HL in Microsomes ([1]; Figure 3, species of microsomes not given) [min] |
| --- | --- | --- | --- | --- | --- | --- | --- | --- | --- | --- |
| CNCC(O)c1cc(C(F)(F)F)nc2c(C(F)(F)F)cccc12 (stereo not shown) [WR308245] | 1.8 | > 120 | > 1 | 0 | 17 (≈ 0.0503 µM) | 16.8 (≈ 0.0495 µM) | 40.4 | 59 | 24 10^-6 cm/s | – |
| CC(C)NCC(O)c1cc(C(F)(F)F)nc2c(C(F)(F)F)cccc12 (stereo not shown) [WR308257] | 3.9 | > 120 | > 1 | 17 | 4.7 (≈ 0.0128 µM) | 4.65 (≈ 0.0127 µM) | 14.2 | 69 | – | – |
| CSCCCNCC(O)c1cc(C(F)(F)F)nc2c(C(F)(F)F)cccc12 (stereo not shown) [WR308278] | 3.5 | > 120 | 0.167 | 1 | 9.7 (≈ 0.0235 µM) | 9.69 (≈ 0.0235 µM) | 20.9 | 54 | 38 10^-6 cm/s | – |
| OC(CNCCNCc1ccccc1)c1cc(C(F)(F)F)nc2c(C(F)(F)F)cccc12 (stereo not shown) [WR308396] | 5.4 | 52 | > 1 | 0 | 6.2 (≈ 0.0136 µM) | – | 18.1 | – | 8.4 10^-6 cm/s | > 60 |
